Patent publication US12589064B2, “Trolox-peptide conjugate and use thereof” (Caregen Co., Ltd., priority 2019, dated 2026)
Where no end group is shown, it is not given here.

Columns and labels:
[1] = system: Human hair follicle dermal papilla cells (HFDPC); assay: Cell proliferation of HFDPC (MTT); assay type: cell-based; conditions: 0.5 μM, 5 μM or 50 μM, serum-free medium, 3 days, FIG. 4
Procedure: (§1) Human hair follicle dermal papilla cells (HFDPC) and HaCaT which is human keratinocyte were dispensed by 2×10^3 in each well of a 96-well plate and cultivated overnight. The medium of the cultivated cells was replaced with a serum-free medium, and treatment with Trolox-peptide conjugates of 0.5 μM, 5 μM or 50 μM were performed, and additional cultivation was performed for 3 days. Then, in order to confirm the proliferation of the cells, 4 mg/ml of 3-(4,5-dimethylthiazol-2-yl)-2,5-diphenyltetrazolium bromide (MTT) was put to the wells by 100 μl each and reacted for 4 hours. Formazan thus produced was treated with DMSO and dissolved, and light absorbance at 560 nm was measured using a microplate reader. In this case, as a positive control, 1 μM of IGF-1 or EGF, which is known as a growth factor promoting the proliferation of HFDPC and HaCaT cells was used, and as a comparison group, single compounds of Trolox and a peptide having the amino acid sequences of SEQ ID NO: 1 to SEQ ID NO: 3, having the same amounts as the Trolox-peptide conjugate of the present invention, were used.

HaCaT human keratinocyte = assay: Cell proliferation of HaCaT human keratinocyte (MTT); assay type: cell-based; conditions: 0.5 μM, 5 μM or 50 μM, serum-free medium, 3 days, FIG. 5
Procedure: as §1

Bcl-2 = assay: Expression of Bcl-2 protein involving cell death in HFDPC (western blot); assay type: cell-based, human; conditions: 50 μM, 24 hours; FIG. 10
Procedure: (§2) HFDPCs were dispensed by 3×10^5 in each well of a 6-well plate and cultivated overnight. The medium of the cultivated cells was replaced with a serum-free medium, treatment with Trolox of 50 μM, a Trolox-peptide (SEQ ID NO: 2) conjugate of 50 μM, or a Trolox-peptide (SEQ ID NO: 3) conjugate of 50 μM, was performed for each, and additional cultivation was performed for 24 hours. Then, protein expression change was confirmed by performing western blot using a specific antibody to Bcl-2 and Bax proteins (Santacruz biotechnology, USA).

Bax = assay: Expression of Bax protein involving cell death in HFDPC (western blot); assay type: cell-based, human; conditions: 50 μM, 24 hours; FIG. 10
Procedure: as §2

P-smad 1/5/8 protein = assay: BMP2 cell signal transduction: P-smad 1/5/8 in HFDPC (western blot); assay type: cell-based, human; conditions: 50 μM, 50 ng/μl BMP-2, 15 minutes; FIG. 13
Procedure: HFDPCs were dispensed by 3×10^5 in each well of a 6-well plate and cultivated overnight. The medium of the cultivated cells was replaced with a serum-free medium, and the experiments below were performed.
The HFDPC cells were treated with 50 ng/μl of BMP-2 and a Trolox-peptide (SEQ ID NO: 1) conjugate of 5 μM or 50 μM, and additionally cultivated for 15 minutes. Then, western blot was performed using a specific […] to a P-smad 1/5/8 protein which is a subprotein of which expression is controlled by BMP2 cell signal transduction (Cell signaling, USA), and the expression change of a protein was confirmed.

| Compound | cell proliferation of HFDPC [1] | cell proliferation of HaCaT (HaCaT human keratinocyte) | expression of Bcl-2 (Bcl-2) | expression of Bax (Bax) | level of expression of the P-smad 1/5/8 protein increased by the treatment with BMP2 (P-smad 1/5/8 protein) |
| --- | --- | --- | --- | --- | --- |
| Cc1c(C)c2c(c(C)c1O)CCC(C)(C(=O)O)O2 (centres unmarked) [Trolox, 6-hydroxy-2,5,7,8-tetramethylchromane-2-carboxylic acid] | rarely showed cell proliferation effects | rarely showed cell proliferation effects | no change | increased | – |
| Trolox-peptide (SEQ ID NO: 1) conjugate: Trolox chemically bonded to the peptide Glu-Leu-Ile-Glu-His-Gly-Gly-Gly-Arg-Pro-Ala-Asp (SEQ ID NO: 1) (ELIEHGGGRPAD; not fully specified (N-terminus); printed as Glu-Leu-Ile-Glu-His-Gly-Gly-Gly-Arg-Pro-Ala-Asp; also: Trolox chemically bonded, site not given here) | – | – | – | – | reduced |
